{"source": "PubChem BioAssay AID248", "about": "(DTP/NCI, 2004)", "system": "L1210 leukemia ip in BDF1 mice, survival T/C", "assay": "NCI In Vivo Anticancer Drug Screen. Data for tumor model L1210 Leukemia (intraperitoneal) in B6D2F1 (BDF1) mice", "settings": "endpoint: mean survival time, higher = longer survival", "in_short": "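Each compound was tested against a transplantable tumor grown in mice. The endpoint was survival, with treated animals benchmarked against vehicle controls as a simple ratio.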", "key": {"[1]": {"settings": "dose: 50.0 mg/kg/injection, schedule: Q01DX009 (ip), vehicle: saline with Tween-80"}, "[2]": {"settings": "dose: 200.0 mg/kg/injection, schedule: Q01DX001 (ip), vehicle: saline"}}, "note": "Toxic doses and inconclusive results are not listed."}
{"smiles": "CC12C=CC(=O)C=C1CCC1C3CCC(O)(C(=O)CO)C3(C)CC(O)C12F", "note": "(stereo not given)", "values": [{"measurement": "T/C", "setting": "dose: 25.0 mg/kg/injection, schedule: Q04DX003 (sc), vehicle: steriod suspending solution", "result": "108 % of control"}, {"measurement": "T/C", "setting": "dose: 50.0 mg/kg/injection, schedule: Q04DX003 (sc), vehicle: steriod suspending solution", "result": "106 % of control"}, {"measurement": "T/C", "setting": "dose: 100.0 mg/kg/injection, schedule: Q04DX003 (sc), vehicle: steriod suspending solution", "result": "123 % of control"}, {"measurement": "T/C", "setting": "dose: 150.0 mg/kg/injection, schedule: Q04DX003 (sc), vehicle: steriod suspending solution", "result": "100 % of control"}, {"measurement": "T/C", "setting": "dose: 225.0 mg/kg/injection, schedule: Q04DX003 (sc), vehicle: steriod suspending solution", "result": "111 % of control"}, {"measurement": "T/C", "setting": "dose: 335.0 mg/kg/injection, schedule: Q04DX003 (sc), vehicle: steriod suspending solution", "result": "105 % of control"}]}
{"smiles": "C/C(=N\\O)c1ccc(OCC(O)CN2CCN(c3ccccc3)CC2)cc1", "note": "(stereo not given)", "values": [{"measurement": "T/C", "setting": "dose: 37.5 mg/kg/injection, schedule: Q04DX003 (ip), vehicle: saline with Tween-80", "result": "101 % of control"}, {"measurement": "T/C", "setting": "[1]", "result": "103 % of control"}, {"measurement": "T/C", "setting": "dose: 75.0 mg/kg/injection, schedule: Q04DX003 (ip), vehicle: saline with Tween-80", "result": "93 % of control"}, {"measurement": "T/C", "setting": "dose: 100.0 mg/kg/injection, schedule: Q01DX009 (ip), vehicle: saline with Tween-80", "result": "108 % of control"}, {"measurement": "T/C", "setting": "dose: 150.0 mg/kg/injection, schedule: Q04DX003 (ip), vehicle: saline with Tween-80", "result": "101 % of control"}, {"measurement": "T/C", "setting": "dose: 200.0 mg/kg/injection, schedule: Q01DX009 (ip), vehicle: saline with Tween-80", "result": "115 % of control"}]}
{"smiles": "COC(=O)C1CN(Cc2ccccc2)C(=O)C1=O", "note": "(stereo not given)", "values": [{"measurement": "T/C", "setting": "dose: 50.0 mg/kg/injection, schedule: Q01DX001 (ip), vehicle: saline", "result": "100 % of control"}, {"measurement": "T/C", "setting": "dose: 100.0 mg/kg/injection, schedule: Q01DX001 (ip), vehicle: saline", "result": "100 % of control"}, {"measurement": "T/C", "setting": "[2]", "result": "90 % of control"}, {"measurement": "T/C", "setting": "dose: 400.0 mg/kg/injection, schedule: Q01DX001 (ip), vehicle: saline", "result": "96 % of control"}]}
{"smiles": "CCOP(=[Se])(OCC)OCC", "values": [{"measurement": "T/C", "setting": "dose: 12.5 mg/kg/injection, schedule: Q01DX009 (ip), vehicle: saline with Tween-80", "result": "91 % of control"}, {"measurement": "T/C", "setting": "dose: 25.0 mg/kg/injection, schedule: Q01DX009 (ip), vehicle: saline with Tween-80", "result": "107 % of control"}, {"measurement": "T/C", "setting": "[1]", "result": "88 % of control"}]}
{"smiles": "CCOc1ccccc1C(N)=O", "values": [{"measurement": "T/C", "setting": "dose: 100.0 mg/kg/injection, schedule: Q01DX009 (ip), vehicle: saline", "result": "96 % of control"}, {"measurement": "T/C", "setting": "dose: 100.0 mg/kg/injection, schedule: Q04DX003 (ip), vehicle: other", "result": "96 % of control"}, {"measurement": "T/C", "setting": "dose: 200.0 mg/kg/injection, schedule: Q01DX009 (ip), vehicle: saline", "result": "107 % of control"}, {"measurement": "T/C", "setting": "dose: 200.0 mg/kg/injection, schedule: Q04DX003 (ip), vehicle: other", "result": "104 % of control"}, {"measurement": "T/C", "setting": "dose: 400.0 mg/kg/injection, schedule: Q01DX009 (ip), vehicle: saline", "result": "102 % of control"}, {"measurement": "T/C", "setting": "dose: 400.0 mg/kg/injection, schedule: Q04DX003 (ip), vehicle: other", "result": "105 % of control"}]}
{"smiles": "NC(N)=Nc1ccc(-c2ccc(N=C(N)N)cc2)cc1", "values": [{"measurement": "T/C", "setting": "dose: 12.5 mg/kg/injection, schedule: Q01DX Z (oral), vehicle: saline", "result": "97 % of control"}, {"measurement": "T/C", "setting": "dose: 25.0 mg/kg/injection, schedule: Q01DX Z (oral), vehicle: saline", "result": "106 % of control"}, {"measurement": "T/C", "setting": "dose: 50.0 mg/kg/injection, schedule: Q01DX Z (oral), vehicle: saline", "result": "101 % of control"}, {"measurement": "T/C", "setting": "dose: 100.0 mg/kg/injection, schedule: Q01DX Z (oral), vehicle: saline", "result": "105 % of control"}, {"measurement": "T/C", "setting": "dose: 200.0 mg/kg/injection, schedule: Q01DX Z (oral), vehicle: saline", "result": "100 % of control"}]}
{"smiles": "CC(=O)NC(C)(C)C#N", "values": [{"measurement": "T/C", "setting": "dose: 100.0 mg/kg/injection, schedule: Q04DX002 (ip), vehicle: Klucel (hydroxypropylcellulose) (HPC)", "result": "93 % of control"}, {"measurement": "T/C", "setting": "dose: 200.0 mg/kg/injection, schedule: Q04DX002 (ip), vehicle: Klucel (hydroxypropylcellulose) (HPC)", "result": "96 % of control"}, {"measurement": "T/C", "setting": "dose: 400.0 mg/kg/injection, schedule: Q04DX002 (ip), vehicle: Klucel (hydroxypropylcellulose) (HPC)", "result": "107 % of control"}]}
{"smiles": "COc1cc(C=Nc2cccc(F)c2)ccc1N(CCCl)CCCl", "values": [{"measurement": "T/C", "setting": "dose: 2.5 mg/kg/injection, schedule: Q01DX009 (ip), vehicle: carboxymethylcellulose (CMC)", "result": "96 % of control"}, {"measurement": "T/C", "setting": "dose: 5.0 mg/kg/injection, schedule: Q01DX009 (ip), vehicle: carboxymethylcellulose (CMC)", "result": "104 % of control"}, {"measurement": "T/C", "setting": "dose: 10.0 mg/kg/injection, schedule: Q01DX009 (ip), vehicle: acetone", "result": "118 % of control"}, {"measurement": "T/C", "setting": "dose: 10.0 mg/kg/injection, schedule: Q01DX009 (ip), vehicle: carboxymethylcellulose (CMC)", "result": "108 % of control"}, {"measurement": "T/C", "setting": "dose: 45.0 mg/kg/injection, schedule: Q01DX001 (ip), vehicle: saline", "result": "110 % of control"}, {"measurement": "T/C", "setting": "dose: 50.0 mg/kg/injection, schedule: Q01DX001 (ip), vehicle: carboxymethylcellulose (CMC)", "result": "101 % of control"}, {"measurement": "T/C", "setting": "dose: 67.0 mg/kg/injection, schedule: Q01DX001 (ip), vehicle: saline", "result": "115 % of control"}, {"measurement": "T/C", "setting": "dose: 100.0 mg/kg/injection, schedule: Q01DX001 (ip), vehicle: carboxymethylcellulose (CMC)", "result": "98 % of control"}, {"measurement": "T/C", "setting": "dose: 200.0 mg/kg/injection, schedule: Q01DX001 (ip), vehicle: carboxymethylcellulose (CMC)", "result": "103 % of control"}, {"measurement": "T/C", "setting": "[2]", "result": "152 % of control"}]}
{"smiles": "Cc1ccc(Nc2cc(=S)nc(N)[nH]2)cc1", "values": [{"measurement": "T/C", "setting": "dose: 100.0 mg/kg/injection, schedule: Q01DX Z (ip), vehicle: methylcellulose (MC)", "result": "93 % of control"}, {"measurement": "T/C", "setting": "dose: 200.0 mg/kg/injection, schedule: Q01DX Z (ip), vehicle: methylcellulose (MC)", "result": "86 % of control"}]}
